# Measured values published in patent US7367988B1, “Use of electromagnetic fields in cancer and other therapies” (The Catholic University of America, priority 2000, dated 2008).
# Like-named read-outs stand apart in the source and are kept apart here.
# System: chick embryos
# Protocol: I have investigated the effect of EM fields on the ability of taxol to create abnormalities in rapidly dividing cells. The model for this purpose was chick embryos. The embryos were incubated in the presence of a 60 Hz, 8 μT EM field. After 48 hours of continuous incubation, either dimethyl sulfoxide (DMSO) alone (controls) or Taxol dissolved in DMSO was injected. EM field incubation was continued for an additional 48 hours. At the end of 4 days incubation, embryos were visualized and classified as normal or abnormal (deformed, young, or dead).
smiles,measurement,setting,value
CC(=O)O[C@H]1C(=O)[C@@]2(C)[C@H]([C@H](OC(=O)c3ccccc3)[C@]3(O)C[C@H](OC(=O)[C@H](O)[C@@H](NC(=O)c4ccccc4)c4ccccc4)C(C)=C1C3(C)C)[C@]1(OC(C)=O)CO[C@@H]1C[C@@H]2O [Taxol],Percent Abnormal Embryos,"Taxol + EM fields: 60 Hz, 8 μT for 48 hours before injection and an additional 48 hours after, embryos classified at 4 days",31.1%
same,Percent Abnormal Embryos,"Taxol alone, dissolved in DMSO, injected after 48 hours of incubation, embryos classified normal or abnormal (deformed, young, or dead) at 4 days",19.3%
same,Toxic effect of taxol with EM field exposure compared with taxol alone,in vivo,very significant increase in the toxic effect
